Patent US20240384350A1, “METHODS OF TREATING CANCER WITH KINASE INHIBITORS” (BOARD OF REGENTS, THE UNIVERSITY OF TEXAS SYSTEM, priority 2021, published 2024)

Experiments:
Experiment in all cases: Ba/F3 drug screening, Cell Titer Glo, IC50 Mut/WT
Assay type in all cases: cell-based
EGFR L833F = biological target: T1, EGFR L833F (Homo sapiens, UniProt P00533, L833F); settings: Classical-Like, 72 hours
T1 construct: expressed in transfected cells; host or cells: Ba/F3 cells, retroviral pBabe-Puro vector
Protocol: (§1) Data represent the ratio of the IC50 value for a given TKI for cells with a classical-like EGFR mutation to the IC50 value for cells with wildtype EGFR.
(§2) Ba/F3 cell generation, drug screening, and IC50 approximations. Ba/F3 cells were obtained as a gift from Dr. Gordon Mills (MD Anderson Cancer Center), and maintained in RPMI (Sigma) containing 10% FBS, 1% penicillin/streptomycin, and 10 ng/ml recombinant mIL-3 (R&D Biosystems). To establish stable Ba/F3 cell lines, Ba/F3 cells were transduced with retroviruses containing mutant EGFR plasmids for 12-24 hours.
(§3) After 48-72 hours of transduction, 2 μg/ml puromycin (Invitrogen) was added to Ba/F3 cell lines in complete RPMI. To select for EGFR positive cell lines, cells were stained with PE-EGFR (Biolegend) and sorted by FACS. After sorting, EGFR positive cells were maintained in RPMI containing 10% FBS, 1% penicillin/streptomycin, and 1 ng/ml EGF to support cell viability. […] Shortly, cells were plated in 384-well plates (Greiner Bio-One) at 2000-3000 cells per well in technical triplicate. Seven different concentrations of TKIs or DMSO vehicle were added to reach a final volume of 40 μL per well. After 72 hours, 11 μL of Cell Titer Glo (Promega) was added to each well. Plates were incubated for a minimum of 10 minutes, and bioluminescence was determined using a FLUOstar OPTIMA plate reader (BMG LABTECH). Raw bioluminescence values were normalized to DMSO control treated cells, and values were plotted in GraphPad Prism. […] Drug screens were performed in technical triplicate on each plate and either duplicate or triplicate biological replicates.

EGFR L858R S784F = biological target: T2, EGFR L858R S784F (Homo sapiens, UniProt P00533, L858R/S784F); settings: Classical-Like, 72 hours
T2 construct: expressed in transfected cells; host or cells: Ba/F3 cells, retroviral pBabe-Puro vector (vector made by GeneScript from EGFR L858R)
Protocol: as §1, §2, §3

EGFR S720P = biological target: T3, EGFR S720P (Homo sapiens, UniProt P00533, S720P); settings: Classical-Like, 72 hours
T3 construct: expressed in transfected cells; host or cells: Ba/F3 cells, retroviral pBabe-Puro vector (vector made by GeneScript from EGFR WT)
Protocol: as §1, §2, §3

EGFR A763insFQEA = biological target: T4, EGFR A763insFQEA (Homo sapiens, UniProt P00533, INS763FQEA); settings: Classical-Like, 72 hours
T4 construct: expressed in transfected cells; host or cells: Ba/F3 cells, retroviral pBabe-Puro vector
Protocol: as §1, §2, §3

EGFR D761N = biological target: T5, EGFR D761N (Homo sapiens, UniProt P00533, D761N); settings: Classical-Like, 72 hours
T5 construct: expressed in transfected cells; host or cells: Ba/F3 cells, retroviral pBabe-Puro vector

EGFR S768dupSVD = biological target: T6, EGFR S768dupSVD (Homo sapiens, UniProt P00533, DUP768-770); settings: Ex20, 72 hours
T6 construct: expressed in transfected cells; host or cells: Ba/F3 cells, retroviral pBabe-Puro vector

EGFR H773insNPH = biological target: T7, EGFR H773insNPH (Homo sapiens, UniProt P00533, INS773NPH); settings: Ex20, 72 hours
T7 construct: expressed in transfected cells; host or cells: Ba/F3 cells, retroviral pBabe-Puro vector

[1] = biological target: T8, EGFR L747_K754del insATSPE (Homo sapiens, UniProt P00533, DEL747-749/K754E); settings: T790M-like-3S, 72 hours
T8 construct: expressed in transfected cells; host or cells: Ba/F3 cells, retroviral pBabe-Puro vector
Protocol: (§4) Data represent the ratio of the IC50 value for a given TKI for cells with a T790M-like-3S EGFR mutation to the IC50 value for cells with wildtype EGFR.
as §2
(§5) After 48-72 hours of transduction, 2 μg/ml puromycin (Invitrogen) was added to Ba/F3 cell lines in complete RPMI. To select for EGFR positive cell lines, cells were stained with PE-EGFR (Biolegend) and sorted by FACS. After sorting, EGFR positive cells were maintained in RPMI containing 10% FBS, 1% penicillin/streptomycin, and 1 ng/ml EGF to support cell viability. Drug screening was performed as previously described^41,42. Shortly, cells were plated in 384-well plates (Greiner Bio-One) at 2000-3000 cells per well in technical triplicate. Seven different concentrations of TKIs or DMSO vehicle were added to reach a final volume of 40 μL per well. After 72 hours, 11 μL of Cell Titer Glo (Promega) was added to each well. Plates were incubated for a minimum of 10 minutes, and bioluminescence was determined using a FLUOstar OPTIMA plate reader (BMG LABTECH). Raw bioluminescence values were normalized to DMSO control treated cells, and values were plotted in GraphPad Prism. […] Drug screens were performed in technical triplicate on each plate and either duplicate or triplicate biological replicates.

EGFR T790M = biological target: T9, EGFR T790M (Homo sapiens, UniProt P00533, T790M); settings: T790M-like-3S, 72 hours
T9 construct: expressed in transfected cells; host or cells: Ba/F3
Protocol: as §4, §2, §5

EGFR G719A T790M = biological target: T10, EGFR G719A T790M (Homo sapiens, UniProt P00533, G719A/T790M); settings: T790M-like-3S, 72 hours
T10 construct: expressed in transfected cells; host or cells: Ba/F3

EGFR G719S T790M = biological target: T11, EGFR G719S T790M (Homo sapiens, UniProt P00533, G719S/T790M); settings: T790M-like-3S, 72 hours
T11 construct: expressed in transfected cells; host or cells: Ba/F3

EGFR Ex19del/T790M/G724S = biological target: T12, EGFR Ex19del/T790M/G724S (Homo sapiens, UniProt P00533, DEL746-750/G724S/T790M); settings: T790M-like-3S, 72 hours
T12 construct: expressed in transfected cells; host or cells: Ba/F3
Protocol: as §4, §2, §5

EGFR L858R T790M L792H = biological target: T13, EGFR L858R T790M L792H (Homo sapiens, UniProt P00533, L792H/L858R/T790M); settings: T790M-like-3S, 72 hours
T13 construct: expressed in transfected cells; host or cells: Ba/F3

EGFR Ex19del T790M L718V = biological target: T14, EGFR Ex19del T790M L718V (Homo sapiens, UniProt P00533, DEL746-750/L718V/T790M); settings: T790M-like-3S, 72 hours
T14 construct: expressed in transfected cells; host or cells: Ba/F3

EGFR L858R/T790M/L718Q = biological target: T15, EGFR L858R/T790M/L718Q (Homo sapiens, UniProt P00533, L718Q/L858R/T790M); settings: T790M-like-3R, 72 hours
T15 construct: expressed in transfected cells; host or cells: Ba/F3
Protocol: Data represent the ratio of the IC50 value for a given TKI for cells with a T790M-like-3R EGFR mutation to the IC50 value for cells with wildtype EGFR.
as §2
After 48-72 hours of transduction, 2 μg/ml puromycin (Invitrogen) was added to Ba/F3 cell lines in complete RPMI. To select for EGFR positive cell lines, cells were stained with PE-EGFR (Biolegend) and sorted by FACS. After sorting, EGFR positive cells were maintained in RPMI containing 10% FBS, 1% penicillin/streptomycin, and 1 ng/ml EGF to support cell viability. […] Shortly, cells were plated in 384-well plates (Greiner Bio-One) at 2000-3000 cells per well in technical triplicate. Seven different concentrations of TKIs or DMSO vehicle were added to reach a final volume of 40 μL per well. After 72 hours, 11 μL of Cell Titer Glo (Promega) was added to each well. Plates were incubated for a minimum of 10 minutes, and bioluminescence was determined using a FLUOstar OPTIMA plate reader (BMG LABTECH). Raw bioluminescence values were normalized to DMSO control treated cells, and values were plotted in GraphPad Prism. […] Drug screens were performed in technical triplicate on each plate and either duplicate or triplicate biological replicates. […] Statistical differences between groups were determined by ANOVA as described in the figure legends.

EGFR Ex19del/T790M/L792H = biological target: T16, EGFR Ex19del/T790M/L792H (Homo sapiens, UniProt P00533, DEL746-750/L792H/T790M); settings: T790M-like-3R, 72 hours
T16 construct: expressed in transfected cells; host or cells: Ba/F3

EGFR Ex19del T790M C797S = biological target: T17, EGFR Ex19del T790M C797S (Homo sapiens, UniProt P00533, C797S/DEL746-750/T790M); settings: T790M-like-3R, 72 hours
T17 construct: expressed in transfected cells; host or cells: Ba/F3

EGFR E709K G719S = biological target: T18, EGFR E709K G719S (Homo sapiens, UniProt P00533, E709K/G719S); settings: Ba/F3 cells, EGFR E709K G719S (PACC), Mut/WT
T18 construct: expressed in transfected cells; host or cells: Ba/F3
Protocol: (§6) Data represent the ratio of the IC50 value for a given TKI for cells with a PACC EGFR mutation to the IC50 value for cells with wildtype EGFR.
as §2, §5

EGFR E709A G719S = biological target: T19, EGFR E709A G719S (Homo sapiens, UniProt P00533, E709A/G719S); settings: Ba/F3 cells, EGFR E709A G719S (PACC), Mut/WT
T19 construct: expressed in transfected cells; host or cells: Ba/F3
Protocol: as §6, §2, §5

EGFR E709A = biological target: T20, EGFR E709A (Homo sapiens, UniProt P00533, E709A); settings: Ba/F3 cells, EGFR E709A (PACC), Mut/WT
T20 construct: expressed in transfected cells; host or cells: Ba/F3
Protocol: as §6, §2, §5

EGFR V774M = biological target: T21, EGFR V774M (Homo sapiens, UniProt P00533, V774M); settings: Ba/F3 cells, EGFR V774M (PACC), Mut/WT
T21 construct: host or cells: Ba/F3

EGFR L858R L718Q = biological target: T22, EGFR L858R L718Q (Homo sapiens, UniProt P00533, L718Q/L858R); settings: Ba/F3 cells, EGFR L858R L718Q (PACC), Mut/WT
T22 construct: host or cells: Ba/F3

EGFR Ex19del G796S = biological target: T23, EGFR Ex19del G796S (Homo sapiens, UniProt P00533, DEL746-750/G796S); settings: Ba/F3 cells, EGFR Ex19del G796S (PACC), Mut/WT
T23 construct: expressed in transfected cells; host or cells: Ba/F3

EGFR Ex19del L718Q = biological target: T24, EGFR Ex19del L718Q (Homo sapiens, UniProt P00533, DEL746-750/L718Q); settings: Ba/F3 cells, EGFR Ex19del L718Q (PACC), Mut/WT
T24 construct: expressed in transfected cells; host or cells: Ba/F3

ratio of IC50 for cells with mutant EGFR to IC50 for cells with wildtype EGFR (Mut/WT) (EGFR L833F): 0.08625 | ratio of IC50 for cells with mutant EGFR to IC50 for cells with wildtype EGFR (Mut/WT) (EGFR L858R S784F): 0.02456 | ratio of IC50 for cells with mutant EGFR to IC50 for cells with wildtype EGFR (Mut/WT) (EGFR S720P): 0.01568 | ratio of IC50 for cells with mutant EGFR to IC50 for cells with wildtype EGFR (Mut/WT) (EGFR A763insFQEA): 0.03797 | ratio of IC50 for cells with mutant EGFR to IC50 for cells with wildtype EGFR (Mut/WT) (EGFR D761N): 0.01957 | ratio of IC50 for cells with mutant EGFR to IC50 for cells with wildtype EGFR (Mut/WT) (EGFR S768dupSVD): 4.027 | ratio of IC50 for cells with mutant EGFR to IC50 for cells with wildtype EGFR (Mut/WT) (EGFR H773insNPH): 5.102 | ratio of IC50 for cells with mutant EGFR to IC50 for cells with wildtype EGFR (Mut/WT) [1]: 2.781 | ratio of IC50 for cells with mutant EGFR to IC50 for cells with wildtype EGFR (Mut/WT) (EGFR T790M): 0.2517 | ratio of IC50 for cells with mutant EGFR to IC50 for cells with wildtype EGFR (Mut/WT) (EGFR G719A T790M): 0.00108 | ratio of IC50 for cells with mutant EGFR to IC50 for cells with wildtype EGFR (Mut/WT) (EGFR G719S T790M): 0.003464 | ratio of IC50 for cells with mutant EGFR to IC50 for cells with wildtype EGFR (Mut/WT) (EGFR Ex19del/T790M/G724S): 0.02984 | ratio of IC50 for cells with mutant EGFR to IC50 for cells with wildtype EGFR (Mut/WT) (EGFR L858R T790M L792H): 0.0005009 | ratio of IC50 for cells with mutant EGFR to IC50 for cells with wildtype EGFR (Mut/WT) (EGFR Ex19del T790M L718V): 0.4667 | ratio of IC50 for cells with mutant EGFR to IC50 for cells with wildtype EGFR (Mut/WT) (EGFR L858R/T790M/L718Q): 11.87 | ratio of IC50 for cells with mutant EGFR to IC50 for cells with wildtype EGFR (Mut/WT) (EGFR Ex19del/T790M/L792H): 1.105 | ratio of IC50 for cells with mutant EGFR to IC50 for cells with wildtype EGFR (Mut/WT) (EGFR Ex19del T790M C797S): 26.17 | ratio of the IC50 value for cells with a PACC EGFR mutation to the IC50 value for cells with wildtype EGFR (EGFR E709K G719S): 0.2652 | ratio of the IC50 value for cells with a PACC EGFR mutation to the IC50 value for cells with wildtype EGFR (EGFR E709A G719S): 0.06878 | ratio of the IC50 value for cells with a PACC EGFR mutation to the IC50 value for cells with wildtype EGFR (EGFR E709A): 0.2759 | ratio of the IC50 value for cells with a PACC EGFR mutation to the IC50 value for cells with wildtype EGFR (EGFR V774M): 0.9635 | ratio of the IC50 value for cells with a PACC EGFR mutation to the IC50 value for cells with wildtype EGFR (EGFR L858R L718Q): 3.064 | ratio of the IC50 value for cells with a PACC EGFR mutation to the IC50 value for cells with wildtype EGFR (EGFR Ex19del G796S): 1.423 | ratio of the IC50 value for cells with a PACC EGFR mutation to the IC50 value for cells with wildtype EGFR (EGFR Ex19del L718Q): 0.08238
Compound: C=CC(=O)Nc1cc(Nc2nccc(-n3cc(CN(C)C)c(-c4ccccc4)n3)n2)c(OC)cc1N1CCOCC1 [Lazertinib]
